# Patent US12410160B2 (Gilead Sciences, Inc., priority 2021, dated 2025)
# What was measured:
# human KHK-A = human KHK-A (Homo sapiens (Human), UniProt P50053); assay: KHK Biochemical Assay (IC50), ADP-Glo, KHK-A; conditions: ADP-Glo; average of at least two separate assays
# Summary of the method: (§1)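 Luminescent ADP-Glo read-out of ADP made by His-tagged KHK (BL21 (DE3) expression, Ni-NTA). Enzyme and compound sat together 30 min before ATP/fructose addition, then reacted 4 h at RT in Hepes pH 7.4 buffer with KCl, MgCl2, Triton-X. Quench 1 h, detection 1 h.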
# [1] = target: KHK-C expressed in NRK-52E cells (Homo sapiens (Human), UniProt P50053); assay: KHK-C Cell-based Assay (EC50), NRK CTG, fructose-mediated ATP-depletion
# Chain of KHK-C expressed in NRK-52E cells (P50053 whole entry): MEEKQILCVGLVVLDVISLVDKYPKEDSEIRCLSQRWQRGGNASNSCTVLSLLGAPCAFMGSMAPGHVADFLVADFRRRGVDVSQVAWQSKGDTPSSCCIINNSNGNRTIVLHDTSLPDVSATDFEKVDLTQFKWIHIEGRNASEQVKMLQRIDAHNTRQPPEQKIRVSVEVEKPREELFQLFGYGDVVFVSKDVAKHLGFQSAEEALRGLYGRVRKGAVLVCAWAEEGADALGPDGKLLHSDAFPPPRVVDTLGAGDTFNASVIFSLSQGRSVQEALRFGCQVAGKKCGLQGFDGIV
# human KHK-C = human KHK-C (Homo sapiens (Human), UniProt P50053); assay: KHK Biochemical Assay (IC50), ADP-Glo, KHK-C; conditions: ADP-Glo; average of at least two separate assays
# Chain of human KHK-C (P50053 whole entry): as above
# Summary of the method: as §1
# Chain of human KHK-A (P50053 other isoform, or with tags, fused parts or gaps): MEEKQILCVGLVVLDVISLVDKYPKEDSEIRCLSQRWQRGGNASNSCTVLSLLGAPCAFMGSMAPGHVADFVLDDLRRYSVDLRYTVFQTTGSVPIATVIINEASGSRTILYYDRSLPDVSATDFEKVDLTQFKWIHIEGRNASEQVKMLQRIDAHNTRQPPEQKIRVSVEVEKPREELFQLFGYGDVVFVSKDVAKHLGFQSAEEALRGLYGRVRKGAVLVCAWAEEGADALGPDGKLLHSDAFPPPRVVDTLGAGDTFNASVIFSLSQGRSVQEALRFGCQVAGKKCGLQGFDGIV
IC50 (human KHK-A) [nM],EC50 [1] [nM],IC50 (human KHK-C) [nM],SMILES
204,205,142,"C[C@H]1CCN1c1nc2c(c(-c3ccc4c(c3)CCO4)n1)CCC2 [Example 274, (S)-4-(2,3-dihydrobenzofuran-5-yl)-2-(2-methylazetidin-1-yl)-6,7-dihydro-5H-cyclopenta[d]pyrimidine]"
1040,291,618,"C[C@H]1CCN1c1nc2c(c(-c3ccc4c(ccn4C)c3)n1)CCC2 [Example 275, (S)-4-(1-methyl-1H-indol-5-yl)-2-(2-methylazetidin-1-yl)-6,7-dihydro-5H-cyclopenta[d]pyrimidine]"
66.6,110,69.5,"CC(O)c1cccc(-c2nc(N3CC[C@@H]3C)nc3c2CCC3)c1 (stereo partly drawn) [Example 276, 1-(3-(2-((S)-2-methylazetidin-1-yl)-6,7-dihydro-5H-cyclopenta[d]pyrimidin-4-yl)phenyl)ethan-1-ol]"
86.5,166,69.9,C[C@H]1[C@H](O)CN1c1nc2c(c(-c3ccc(C(N)=O)c(F)c3)n1)CCC2 [Example 307]
130,294,97.5,C[C@H]1[C@H](O)CN1c1nc2c(c(-c3ccc(C(N)=O)c(Cl)c3)n1)CCC2 [Example 308]
19,15.8,17.4,"COc1cc(-c2nc(N3CC[C@@H]3C)nc3c2CCC3)ccc1C(N)=O [Example 309, (S)-2-methoxy-4-(2-(2-methylazetidin-1-yl)-6,7-dihydro-5H-cyclopenta[d]pyrimidin-4-yl)benzamide]"
449,1810,555,"COc1cc(-c2nc(N3CC[C@@H]3C)nc3c2CCC3)ccc1C#N [Example 310, (S)-2-methoxy-4-(2-(2-methylazetidin-1-yl)-6,7-dihydro-5H-cyclopenta[d]pyrimidin-4-yl)benzonitrile]"
1030,2080,1150,"C[C@H]1CCN1c1nc2c(c(-c3ccc(C#N)c(F)c3)n1)CCC2 [Example 313, (S)-2-fluoro-4-(2-(2-methylazetidin-1-yl)-6,7-dihydro-5H-cyclopenta[d]pyrimidin-4-yl)benzonitrile]"
31.5,57.3,34,"C[C@H]1CCN1c1nc2c(c(-c3cc(F)c(C(N)=O)c(F)c3)n1)CCC2 [Example 315, (S)-2,6-difluoro-4-(2-(2-methylazetidin-1-yl)-6,7-dihydro-5H-cyclopenta[d]pyrimidin-4-yl)benzamide]"
19,35,42.9,"C[C@H]1CCN1c1nc2c(c(-c3ccc(C(N)=O)c(C(F)(F)F)c3)n1)CCC2 [Example 316, (S)-4-(2-(2-methylazetidin-1-yl)-6,7-dihydro-5H-cyclopenta[d]pyrimidin-4-yl)-2-(trifluoromethyl)benzamide]"
25,37.3,20.9,"CCOc1cc(-c2nc(N3CC[C@@H]3C)nc3c2CCC3)ccc1C(N)=O [Example 319, (S)-2-ethoxy-4-(2-(2-methylazetidin-1-yl)-6,7-dihydro-5H-cyclopenta[d]pyrimidin-4-yl)benzamide]"
210,638,244,"C[C@H]1CCN1c1nc2c(c(-c3ccc(C(N)=O)c(NS(C)(=O)=O)c3)n1)CCC2 [Example 320, (S)-4-(2-(2-methylazetidin-1-yl)-6,7-dihydro-5H-cyclopenta[d]pyrimidin-4-yl)-2-(methylsulfonamido)benzamide]"
22.4,13.1,19.2,"CNCc1cccc(-c2nc(N3CC[C@@H]3C)nc3c2CCC3)c1 [Example 330, N-methyl-1-[3-[2-[(2S)-2-methylazetidin-1-yl]-6,7-dihydro-5H-cyclopenta[d]pyrimidin-4-yl]phenyl]methanamine]"

# Continued, compound first:
SMILES,IC50 (human KHK-A) [nM],EC50 [1] [nM],IC50 (human KHK-C) [nM]
"C[C@H]1CCN1c1nc(-c2cccc(C(N)=O)c2)c2c(cnn2C)n1 [Example 271, (S)-3-(1-methyl-5-(2-methylazetidin-1-yl)-1H-pyrazolo[4,3-d]pyrimidin-7-yl)benzamide]",518,2320,532
"C[C@H]1CCN1c1nc2c(c(-c3cccc(CNS(C)(=O)=O)c3)n1)CCC2 [Example 277, (S)—N-(3-(2-(2-methylazetidin-1-yl)-6,7-dihydro-5H-cyclopenta[d]pyrimidin-4-yl)benzyl)methanesulfonamide]",11.9,26.7,15.3
C[C@H]1[C@H](F)CN1c1nc2c(c(-c3cccc(CNS(C)(=O)=O)c3)n1)CCC2 [Example 284],21.8,55.7,16.4
C[C@H]1[C@H](O)CN1c1nc2c(c(-c3ccc4c(c3)CCNC4=O)n1)CCC2 [Example 288],103,108,44.3
C[C@H]1[C@H](F)CN1c1nc2c(c(-c3ccc4c(c3)CCNC4=O)n1)CCC2 [Example 289],57.9,34.5,17.5
"C[C@H]1[C@H](F)CN1c1nc2c(c(-c3cccc(NS(C)(=O)=O)c3)n1)CCC2 [Example 290, N-(3-(2-((2S,3R)-3-fluoro-2-methylazetidin-1-yl)-6,7-dihydro-5H-cyclopenta[d]pyrimidin-4-yl)phenyl)methanesulfonamide]",50.5,71.3,30.9
"C[C@H]1CCN1c1nc2c(c(-c3ccc(C(N)=O)c(Cl)c3)n1)CCC2 [Example 303, (S)-2-chloro-4-(2-(2-methylazetidin-1-yl)-6,7-dihydro-5H-cyclopenta[d]pyrimidin-4-yl)benzamide]",29.7,91.5,49.7
"C[C@H]1CCN1c1nc2c(c(-c3ccc(C4(NC(=O)OC(C)(C)C)CCC4)cc3)n1)CCC2 [Example 311, (S)-tert-butyl (1-(4-(2-(2-methylazetidin-1-yl)-6,7-dihydro-5H-cyclopenta[d]pyrimidin-4-yl)phenyl)cyclobutyl)carbamate]",> 5000,915,> 5000
"C[C@H]1CCN1c1nc2c(c(-c3ccc(C#N)c(Cl)c3)n1)CCC2 [Example 314, (S)-2-chloro-4-(2-(2-methylazetidin-1-yl)-6,7-dihydro-5H-cyclopenta[d]pyrimidin-4-yl)benzonitrile]",2020,4490,1940
"C[C@H]1CCN1c1nc(-c2cccc(S(N)(=O)=O)c2)c2c(n1)C(F)(F)CC2 [Example 321, (S)-3-(7,7-difluoro-2-(2-methylazetidin-1-yl)-6,7-dihydro-5H-cyclopenta[d]pyrimidin-4-yl)benzenesulfonamide]",4.8,7.3,4.4
"C[C@H]1CCN1c1nc(-c2cccc(CNS(C)(=O)=O)c2)c2c(n1)C(F)(F)CC2 [Example 323, (S)—N-(3-(7,7-difluoro-2-(2-methylazetidin-1-yl)-6,7-dihydro-5H-cyclopenta[d]pyrimidin-4-yl)benzyl)methanesulfonamide]",4.7,16.1,4.2
"C[C@H]1CCN1c1nc(-c2ccccc2)c2c(n1)[C@@H]1C[C@@H]1C2 [Example 333, (5aR,6aR)-2-((S)-2-methylazetidin-1-yl)-4-phenyl-5,5a,6,6a-tetrahydrocyclopropa[4,5]cyclopenta[1,2-d]pyrimidine]",1310,1130,1310
"C[C@H]1CCN1c1nc2c(c(-c3cccc(CN4CCCCC4)c3)n1)CCC2 [Example 345, 2-[(2S)-2-methylazetidin-1-yl]-4-[3-(1-piperidylmethyl)phenyl]-6,7-dihydro-5H-cyclopenta[d]pyrimidine]",12.6,53.7,45.1
"C[C@H]1CCN1c1nc2c(c(-c3cccc(CN(C)C)c3)n1)CCC2 [Example 346, N,N-dimethyl-1-[3-[2-[(2S)-2-methylazetidin-1-yl]-6,7-dihydro-5H-cyclopenta[d]pyrimidin-4-yl]phenyl]methanamine]",16.7,27.5,14.7
"C[C@H]1CCN1c1nc2c(c(-c3cccc(CN4CCCC4)c3)n1)CCC2 [Example 348, 2-[(2S)-2-methylazetidin-1-yl]-4-[3-(pyrrolidin-1-ylmethyl)phenyl]-6,7-dihydro-5H-cyclopenta[d]pyrimidine]",24.2,35.1,22.7
"C[C@H]1CCN1c1nc2c(c(-c3cccc(CN4CCOCC4)c3)n1)CCC2 [Example 349, 4-[[3-[2-[(2S)-2-methylazetidin-1-yl]-6,7-dihydro-5H-cyclopenta[d]pyrimidin-4-yl]phenyl]methyl]morpholine]",79.3,305,90.6
"C[C@H]1CCN1c1nc2c(c(-c3cccc(CN4CC(O)C4)c3)n1)CCC2 [Example 350, 1-[[3-[2-[(2S)-2-methylazetidin-1-yl]-6,7-dihydro-5H-cyclopenta[d]pyrimidin-4-yl]phenyl]methyl]azetidin-3-ol]",16.8,14,19.3
"CC(=O)Nc1ccc(-c2nc(N3CC[C@@H]3C)nc3c2CCC3)cc1 [Example 355, N-[4-[2-[(2S)-2-methylazetidin-1-yl]-6,7-dihydro-5H-cyclopenta[d]pyrimidin-4-yl]phenyl]acetamide]",33.3,92.4,72.7
"C[C@H]1CCN1c1nc2c(c(-c3ccc(CN4CC(O)C4)cc3)n1)CCC2 [Example 365, 1-[[4-[2-[(2S)-2-methylazetidin-1-yl]-6,7-dihydro-5H-cyclopenta[d]pyrimidin-4-yl]phenyl]methyl]azetidin-3-ol]",27.2,29.3,19
